Assay results from PubChem BioAssay AID2060506 (Molecular Pharmacology Branch, DTP, NCI, 2025).

Test system: 598228-144-R-J1-PDC complex spheroid viability
Assay: Anticancer human tumor 598228-144-R-J1-PDC patient-derived serous endometrial adenocarcinoma cell line growth inhibition [GQUAD]
Conditions: for IC50: curve of first compound; for viability, T/C: stronger effect = lower value
Outline: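 Tumor cells were grown as complex spheroids with HUVEC endothelial cells and mesenchymal stem cells as stroma. G-quadruplex stabilizers were combined with targeted agents over half-log dilutions from near the clinical Cmax, or from 10 microM.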

[1] = second compound 0.0316 µM, first compound 0.0316 µM
[2] = second compound 0.0316 µM, first compound 0.1 µM
[3] = second compound 0.0316 µM, first compound 0.316 µM
[4] = second compound 0.0316 µM, first compound 1 µM
[5] = second compound 0.0316 µM, first compound 3.16 µM
[6] = second compound 0.0316 µM, first compound 10 µM
[7] = second compound 0.1 µM, first compound 0.0316 µM
[8] = second compound 0.1 µM, first compound 0.1 µM
[9] = second compound 0.1 µM, first compound 0.316 µM
[10] = second compound 0.1 µM, first compound 1 µM
[11] = second compound 0.1 µM, first compound 3.16 µM
[12] = second compound 0.1 µM, first compound 10 µM
[13] = second compound 0.316 µM, first compound 0.0316 µM
[14] = second compound 0.316 µM, first compound 0.1 µM
[15] = second compound 0.316 µM, first compound 0.316 µM
[16] = second compound 0.316 µM, first compound 1 µM
[17] = second compound 0.316 µM, first compound 3.16 µM
[18] = second compound 0.316 µM, first compound 10 µM
[19] = second compound 1 µM, first compound 0.0316 µM
[20] = second compound 1 µM, first compound 0.1 µM
[21] = second compound 1 µM, first compound 0.316 µM
[22] = second compound 1 µM, first compound 1 µM
[23] = second compound 1 µM, first compound 3.16 µM
[24] = second compound 1 µM, first compound 10 µM
[25] = second compound 3.16 µM, first compound 0.0316 µM
[26] = second compound 3.16 µM, first compound 0.1 µM
[27] = second compound 3.16 µM, first compound 0.316 µM
[28] = second compound 3.16 µM, first compound 1 µM
[29] = second compound 3.16 µM, first compound 3.16 µM
[30] = second compound 3.16 µM, first compound 10 µM
[31] = second compound 10 µM, first compound 0.0316 µM
[32] = second compound 10 µM, first compound 0.1 µM
[33] = second compound 10 µM, first compound 0.316 µM
[34] = second compound 10 µM, first compound 1 µM
[35] = second compound 10 µM, first compound 3.16 µM
[36] = second compound 10 µM, first compound 10 µM
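Note: spheroids exposed to the agents for one week before reading.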
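Throughout, for viability, T/C: percent of vehicle DMSO control viability so 100% = untreated growth.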

CC(=O)O[C@H]1C(=O)[C@@]2(C)[C@H]([C@H](OC(=O)c3ccccc3)[C@]3(O)C[C@H](OC(=O)[C@H](O)[C@@H](NC(=O)c4ccccc4)c4ccccc4)C(C)=C1C3(C)C)[C@]1(OC(C)=O)CO[C@@H]1C[C@@H]2O + Cc1cnc(CNC(=O)c2c(=O)c3ccc(N4CCCN(C)CC4)nc3n3c2sc2ccccc23)cn1
IC50 (second compound 0.0316 µM): < 0.0316 µM | IC50 (second compound 0.1 µM): < 0.0316 µM | IC50 (second compound 0.316 µM): 0.533 µM | IC50 (second compound 1 µM): 7.49 µM | IC50 (second compound 3.16 µM): < 0.0316 µM | IC50 (second compound 10 µM): < 0.0316 µM | viability, T/C [1]: 50.2% | viability, T/C [2]: 37% | viability, T/C [3]: 45.2% | viability, T/C [4]: 41.3% | viability, T/C [5]: 43.7% | viability, T/C [6]: 43.2% | viability, T/C [7]: 48.4% | viability, T/C [8]: 54.9% | viability, T/C [9]: 44.5% | viability, T/C [10]: 49.9% | viability, T/C [11]: 53.2% | viability, T/C [12]: 51.7% | viability, T/C [13]: 49% | viability, T/C [14]: 67.9% | viability, T/C [15]: 45.9% | viability, T/C [16]: 39.1% | viability, T/C [17]: 51.2% | viability, T/C [18]: 49.6% | viability, T/C [19]: 52.1% | viability, T/C [20]: 59.9% | viability, T/C [21]: 53.2% | viability, T/C [22]: 50% | viability, T/C [23]: 50% | viability, T/C [24]: 50.9% | viability, T/C [25]: 46.9% | viability, T/C [26]: 38.8% | viability, T/C [27]: 43.2% | viability, T/C [28]: 34.5% | viability, T/C [29]: 40.4% | viability, T/C [30]: 44.5% | viability, T/C [31]: 0.38% | viability, T/C [32]: 19.7% | viability, T/C [33]: 0.53% | viability, T/C [34]: 0.57% | viability, T/C [35]: 10.9% | viability, T/C [36]: 12.1%

C=CC(=O)N1CCN(c2nc(=O)n(-c3c(C)ccnc3C(C)C)c3nc(-c4c(O)cccc4F)c(F)cc23)C(C)C1 (stereo not given) + Cc1[nH]c2ccc(F)cc2c1-c1nc2c3cccnc3c3ncccc3c2[nH]1
IC50 (second compound 0.0316 µM): > 10 µM | IC50 (second compound 0.1 µM): > 10 µM | IC50 (second compound 0.316 µM): > 10 µM | IC50 (second compound 1 µM): > 10 µM | IC50 (second compound 3.16 µM): < 0.0316 µM | IC50 (second compound 10 µM): > 10 µM | viability, T/C [1]: 119% | viability, T/C [2]: 95% | viability, T/C [3]: 105% | viability, T/C [4]: 132% | viability, T/C [5]: 136% | viability, T/C [6]: 123% | viability, T/C [7]: 88.4% | viability, T/C [8]: 110% | viability, T/C [9]: 102% | viability, T/C [10]: 129% | viability, T/C [11]: 136% | viability, T/C [12]: 151% | viability, T/C [13]: 75.9% | viability, T/C [14]: 94.8% | viability, T/C [15]: 99.5% | viability, T/C [16]: 108% | viability, T/C [17]: 159% | viability, T/C [18]: 108% | viability, T/C [19]: 58.6% | viability, T/C [20]: 62.9% | viability, T/C [21]: 63.7% | viability, T/C [22]: 75.6% | viability, T/C [23]: 89.3% | viability, T/C [24]: 101% | viability, T/C [25]: 36.1% | viability, T/C [26]: 37.2% | viability, T/C [27]: 55.9% | viability, T/C [28]: 57.7% | viability, T/C [29]: 59.5% | viability, T/C [30]: 70% | viability, T/C [31]: 57.1% | viability, T/C [32]: 75.6% | viability, T/C [33]: 63.8% | viability, T/C [34]: 69.1% | viability, T/C [35]: 80.9% | viability, T/C [36]: 103%

C=CC(=O)N1CCN(c2nc(=O)n(-c3c(C)ccnc3C(C)C)c3nc(-c4c(O)cccc4F)c(F)cc23)C(C)C1 (stereo not given) + Cc1cnc(CNC(=O)c2c(=O)c3ccc(N4CCCN(C)CC4)nc3n3c2sc2ccccc23)cn1
IC50 (second compound 0.0316 µM): > 10 µM | IC50 (second compound 0.1 µM): > 10 µM | IC50 (second compound 0.316 µM): > 10 µM | IC50 (second compound 1 µM): > 10 µM | IC50 (second compound 3.16 µM): > 10 µM | IC50 (second compound 10 µM): < 0.0316 µM | viability, T/C [1]: 92.7% | viability, T/C [2]: 97.3% | viability, T/C [3]: 91% | viability, T/C [4]: 83.2% | viability, T/C [5]: 102% | viability, T/C [6]: 82.9% | viability, T/C [7]: 80.8% | viability, T/C [8]: 66.3% | viability, T/C [9]: 77.6% | viability, T/C [10]: 81.7% | viability, T/C [11]: 86.4% | viability, T/C [12]: 80.4% | viability, T/C [13]: 89.3% | viability, T/C [14]: 55.1% | viability, T/C [15]: 62.6% | viability, T/C [16]: 73.3% | viability, T/C [17]: 80.6% | viability, T/C [18]: 64.1% | viability, T/C [19]: 65.1% | viability, T/C [20]: 74.9% | viability, T/C [21]: 58.2% | viability, T/C [22]: 83% | viability, T/C [23]: 77.6% | viability, T/C [24]: 79.8% | viability, T/C [25]: 69% | viability, T/C [26]: 60.4% | viability, T/C [27]: 60.1% | viability, T/C [28]: 55.4% | viability, T/C [29]: 63.3% | viability, T/C [30]: 54% | viability, T/C [31]: 48.1% | viability, T/C [32]: 36% | viability, T/C [33]: 60.9% | viability, T/C [34]: 50.9% | viability, T/C [35]: 51.5% | viability, T/C [36]: 5.43%

CC(C)n1c(=O)n(C)c2cnc3cc(F)c(-c4ccc(OCCCN5CCCCC5)nc4)cc3c21 + Cc1cnc(CNC(=O)c2c(=O)c3ccc(N4CCCN(C)CC4)nc3n3c2sc2ccccc23)cn1
IC50 (second compound 0.0316 µM): 8.28 µM | IC50 (second compound 0.1 µM): 0.793 µM | IC50 (second compound 0.316 µM): 3.55 µM | IC50 (second compound 1 µM): 2.62 µM | IC50 (second compound 3.16 µM): < 0.0316 µM | IC50 (second compound 10 µM): < 0.0316 µM | viability, T/C [1]: 58.2% | viability, T/C [2]: 78.2% | viability, T/C [3]: 77.8% | viability, T/C [4]: 63.1% | viability, T/C [5]: 62.8% | viability, T/C [6]: 47.5% | viability, T/C [7]: 70.2% | viability, T/C [8]: 57.9% | viability, T/C [9]: 53.4% | viability, T/C [10]: 44.3% | viability, T/C [11]: 61.3% | viability, T/C [12]: 36.8% | viability, T/C [13]: 52.1% | viability, T/C [14]: 50.3% | viability, T/C [15]: 55.1% | viability, T/C [16]: 48.8% | viability, T/C [17]: 52.1% | viability, T/C [18]: 36% | viability, T/C [19]: 53.2% | viability, T/C [20]: 59.2% | viability, T/C [21]: 59.6% | viability, T/C [22]: 56.5% | viability, T/C [23]: 47.5% | viability, T/C [24]: 28.1% | viability, T/C [25]: 50.4% | viability, T/C [26]: 46% | viability, T/C [27]: 48.3% | viability, T/C [28]: 50.5% | viability, T/C [29]: 38.1% | viability, T/C [30]: 3.5% | viability, T/C [31]: 40.7% | viability, T/C [32]: 36.6% | viability, T/C [33]: 39.1% | viability, T/C [34]: 29.9% | viability, T/C [35]: 25% | viability, T/C [36]: 0.34%

COc1ccc([C@@H](O)c2cc(-c3ncnc4cc(N5CCOCC5)ccc34)c(F)cc2Cl)nn1 + CN(C)c1ccc(Nc2c3ccc(NC(=O)CCN4CCCC4)cc3nc3cc(NC(=O)CCN4CCCC4)ccc23)cc1
IC50 (second compound 0.0316 µM): 2.6 µM | IC50 (second compound 0.1 µM): 3.83 µM | IC50 (second compound 0.316 µM): 2.3 µM | IC50 (second compound 1 µM): 2.3 µM | IC50 (second compound 3.16 µM): 2.46 µM | IC50 (second compound 10 µM): 0.79 µM | viability, T/C [1]: 96.4% | viability, T/C [2]: 77.6% | viability, T/C [3]: 73.4% | viability, T/C [4]: 68.2% | viability, T/C [5]: 44% | viability, T/C [6]: 32.5% | viability, T/C [7]: 121% | viability, T/C [8]: 94.4% | viability, T/C [9]: 90.5% | viability, T/C [10]: 68.4% | viability, T/C [11]: 52.2% | viability, T/C [12]: 36.4% | viability, T/C [13]: 89.8% | viability, T/C [14]: 91.1% | viability, T/C [15]: 79.3% | viability, T/C [16]: 64.4% | viability, T/C [17]: 44.9% | viability, T/C [18]: 29.5% | viability, T/C [19]: 110% | viability, T/C [20]: 91.6% | viability, T/C [21]: 76.3% | viability, T/C [22]: 53.3% | viability, T/C [23]: 52% | viability, T/C [24]: 33.7% | viability, T/C [25]: 117% | viability, T/C [26]: 108% | viability, T/C [27]: 103% | viability, T/C [28]: 58.8% | viability, T/C [29]: 53.6% | viability, T/C [30]: 26.2% | viability, T/C [31]: 106% | viability, T/C [32]: 73.6% | viability, T/C [33]: 76.3% | viability, T/C [34]: 43.3% | viability, T/C [35]: 26.4% | viability, T/C [36]: 20.1%
